Experimental findings from US12631623B2, “Heart tissue model” (IMBA—INSTITUT FÜR MOLEKULARE BIOTECHNOLOGIE GMBH, priority 2020, dated 2026) are described below.

For data set [1], the system named is cardioids (hPSC-derived). Briefly: RNA-seq gene expression of cardioids induced with high vs low CHIR99021. In kind it is cell-based, human. How it is done: RNA isolation and RNA-seq/Smart-Seq2/single-cell (sc)RNA-seq preparation—RNA was isolated with the RNeasy Mini Kit (Qiagen, #74104). Generation of the bulk RNA-seq libraries was performed according to the manufacturer's instructions with QuantSeq 3′ mRNA-Seq Library Prep Kit FWD (Lexogen GmbH, #015). After the preparation of the libraries, samples were checked for an adequate size distribution with a fragment analyzer (Advanced Analytical Technologies, Inc) and were submitted to the Vienna Biocenter Core Facilities (VBCF) Next-Generation-Sequencing (NGS) facility for sequencing. For Smart-Seq2 analysis, 400 cells were sorted into lysis buffer and stored at −80° C. until further processing. […]
Bioinformatic analysis—Trimming was performed for Smart-Seq2 experiments using trim-galore v0.5.0 and for QuantSeq 3′ mRNA-Seq experiments using BBDuk v38.06 (ref=polyA.fa.gz,truseq.fa.gz k=13 ktrim=r useshortkmers=t mink=5 qtrim=r trimq=10 minlength=20). Reads mapping to abundant sequences included in the iGenomes UCSC hg38 reference (human rDNA, human mitochondrial chromosome, phiX174 genome, adapter) were removed using bowtie2 v2.3.4.1 alignment. Remaining reads were analyzed using genome and UCSC gene annotation provided in the iGenomes UCSC hg38 bundle (support.illumina.com/sequencing/sequencingsoftware/igenome.html). […]

The test system of data set [2] is hPSCs (WTC MYH10-GFP). Briefly: Mesoderm induction of hPSC aggregates (T / SOX2 staining). Format: cell-based, human. The settings on record: 8 uM CHIR99021, 40 h of mesoderm induction, 1000 hPSCs. As to the method:
(§1) Immunostaining—Following fixation with 4% PFA (Sigma-Aldrich, #16005) specimens were washed twice in 1×PBS and the 3D constructs additionally once in PBS/Tween20 (0.1%, Sigma-Aldrich, #P1379) for at least 15 min each. Tissues were incubated in blocking solution consisting of PBS (Gibco, #14190094) with 4% goat (Bio-Rad Laboratories, #C07SA) or donkey serum (Bio-Rad Laboratories, #C06SB) and 0.2% Triton X-100 (Sigma-Aldrich, #T8787) for at least 15 minutes. The primary antibody was subsequently applied in above blocking buffer for 1-3 hours at room temperature or overnight at 4° C. in the case of the 2D samples and 2 days at 4° C. on a shaker for 3D samples. Following washing twice with PBS/Tween20, 3D tissues were incubated with the secondary antibody solution at 4° C. on a shaker for 2 more days while 2D samples were incubated up to 2 hours at room temperature. Following these washing steps and an additional PBS wash, tissues were ready for analysis or storage at 4° C. in PBS, while slides were mounted using fluorescence mounting medium (Dako Agilent Pathology Solutions, #S3023). 3D tissues were cleared with FocusClear (CellExplorer Labs, #FC-101) prior to imaging.

The test system of data set [3] is cardioids (hPSC-derived). Briefly: High-throughput imaging of cardioid diameter and cavity expansion at the cardiac mesoderm stage (day 3.5). In kind it is cell-based, human. As to conditions: for cardiac mesoderm density / cell number per cardioid: BMP inhibition with Noggin or LDN193189, initial two days of cardiac mesoderm stage; for cavity expansion / cavity morphogenesis / organoid/cardioid diameter (size): Noggin 100 ng/ml or LDN193189 0.2 μM, initial two days of cardiac mesoderm stage. As to the method:
(§2) Image acquisition and analysis—Fixed whole mounts and sections were imaged with point scanning (upright Zeiss LSM800 Axio Imager with an Apochromat 20× objective lens at 1× magnification) and spinning disk confocal microscopes (Olympus spinning disk system based on a IX3 Series (IX83) inverted microscope, equipped with a Yokogawa W1 spinning disc), or a widefield microscope (Zeiss Axio Imager 2, Axio Vert A1, Panoramic FLASH 250 II System). Live imaging experiments were performed using a Zeiss Celldiscoverer 7 or above-mentioned spinning disk microscope. For high-throughput imaging and analysis, images were taken with a Celigo Imaging Cytometer microscope (Nexcelom Biosciences, LLC) and analyzed with custom-made scripts written for the FIJI software. Sections for transmission electron microscopy were examined with aFEI Morgagni 268D TEM (FEI, Eindhoven, The Netherlands) operated at 80 kV. Images were acquired using an 11 megapixel Morada CCD camera (Olympus-SIS).
We next used cardioids to dissect how signaling controls intrinsic morphogenesis and patterning during cardioid specification. To quantify phenotypes with high statistical power, we combined the high-throughput cardioid platform with a custom-made semi-automated imaging/analysis FIJI-pipeline. Using this setup, we examined which signals control cardioid self-organization and at what stage of mesodermal specification they act. We first systematically tested the effects of key mesoderm and cardiac mesoderm signaling dosages (e. g. WNT, BMP) on cardiac cavity self-morphogenesis. […] An intermediate WNT dosage promoted both cavity morphogenesis and CM specification. The optimal WNT activation range was consistent for each hPSC line but differed across lines, consistent with numerous studies showing line-specific signaling responses. Importantly, the highest WNT dosage promoted cavity formation without CM specification (FIG. 16A), highlighting a striking difference in signaling control of cell-fate specification versus morphogenesis.

Data set [4] concerns cardiac organoids (hPSC-derived). As to the kind of experiment: Reporter imaging / immunostaining of cardiomyocyte and endothelial cell organisation in cardiac organoids. Format: cell-based, human. As to conditions: for location of endothelial cell layer: with VEGF; for organization of cardiomyocytes and endothelial cells: Wnt-inhibitor during differentiation, CHIR99021 5 μM or 6 μM; for EC lining of cavity: VEGF(-A) added after CM specification stage; for separation of CM and EC layers: VEGF(-A) included at cardiac mesoderm stage. How it is done:
as §1, §2

Data set [5] concerns cardiac organoids (hPSC-derived, WTC MYL7-GFP/CDH5-Tomato).
Method: Generation of cardiac organoids with endothelial lining—Pluripotency maintenance medium was refreshed 6 h prior to seeding cells. Then, 2500-3000 hPSC were seeded into ultra-low cluster 96-well plates (Corning) in FLyAB(Ins) medium with CHIR (5-6 μM) and ROCKi (5 μM) for 36 h-40 h.
In order to stop endothelial cell differentiation, 100 nM sunitinib malate (Biovision, #1611) was added from the cardiac mesoderm stage (BFIIWPRa) onward.
Flow cytometry—Cells were dissociated using the CM dissociation kit (Stem Cell Technologies, #05025). After centrifugation for 3 min at 130 g, cells were resuspended in 300 μl PBS supplemented with 0.5 mM EDTA (Biological Industries, #01-862-1B) and 10% FBS (PAA Laboratories, #A15-108). Cells were acquired with a FACS LSR Fortessa II (BD) and analysed with FlowJo V10 (FlowJo, LLC) software. FACS sorting was performed using a Sony SH800 Cell Sorter (Sony Biotechnology).
The test system of data set [6] is cardiac mesoderm cavity structures (cardioids). As to the kind of experiment: Dextran incorporation assay in cardioids. As to conditions: low-molecular-weight (4 kDa) dextran, cardiac mesoderm stage. Format: cell-based, human. As to the method:
Dextran and Fluo-4 incorporation assays—A 4.4 kDa Dextran conjugated with TAMRA (Sigma Aldrich, T1037) was added to the cardioid culture between 64 h and 90 h. Cardioids were live imaged as cavities started to form. To image and analyze calcium-transients, 3D cardioids and 2D CM were loaded with Fluo-4 AM (Thermo Fisher Scientific, #F14217). After a 15-min incubation, cardioids were incubated for another 15 min in Tyrode's salt solution (Sigma Aldrich, #T2397). Subsequently, cardioids were imaged live and videos were analyzed with FIJI software (Schindelin et al., 2012, Nature Methods 9, 676-682) to acquire the signal intensity (F) of regions of interest and background (F0).

The mark [7] stands for this setting: +Sunitinib (100 μM [sic]), end of differentiation day 7.5.

“Also recorded” adds a separate entry of the source.

Regarding `Cc1c[nH]c(-c2cnc(NCCNc3ccc(C#N)cn3)nc2-c2ccc(Cl)cc2Cl)n1` [CHIR99021], in data set [1] (4 μM CHIR99021 during mesoderm induction vs 8 μM), the “EC genes (PECAM1, CDH5, VEGFA, TAL1, LMO2, ETV2) expression” value is on record as “upregulated; also recorded: higher expression of EC-specifying genes”. The “BMP target genes (HAND1, IRX3, BMP4, BMP2, BMPR2) expression” value in data set [1] (8 μM during mesoderm induction (cavity-forming conditions)) is listed as “upregulated”. Besides, the “exit from pluripotency (T up, SOX2 down)” value in data set [2] was “efficiently exited pluripotency”. The “cavity defect of HAND1 KO organoids” value in data set [3] (increased CHIR99021 during mesoderm induction, HAND1 KO (H9), d3.5) is “rescues cavity defect in HAND1 KO organoids”. In addition, the “cardioid diameter / lumen expansion as function of CHIR99021 dosage” value in data set [3] (range of CHIR99021 concentrations during mesoderm induction, day 3.5) is reported as “dramatic effects on cardioid diameter; also recorded: striking effects on lumen expansion”. The “endothelial lining of cavities” value in data set [4] (4 uM CHIR99021 during induction, d27, WTC MYL7-GFP) is recorded as “lining of internal cavities by endothelial (CD31+) cells”. For the same molecule, the “apoptosis (cleaved caspase 3 staining)” value in data set [4] (4 μM CHIR condition) is listed as “increased levels inside the EC ring”; in data set [4] (6 μM CHIR condition), “low levels of apoptosis”. In addition, the “location of endothelial cell layer” value in data set [4] (high WNT activity, 5-8 μM CHIR during mesoderm induction) was “compartment/lining around the cardiomyocytes”; in data set [4] (lower WNT activity, 4 μM (1-4 μM) CHIR during mesoderm induction) it was “inner ring of EC expressing CD31”; in data set [4] (lower WNT activity, 4 μM (1-4 μM) CHIR during mesoderm induction, listed as CHIR) it was “inside lining facing the cavity”.

For the molecule `Cc1ccc2nc(NC(=O)CSc3nc4c(c(=O)n3-c3ccccc3)SCC4)sc2c1` [IWP2], in data set [4], the “organization of cardiomyocytes and endothelial cells” value (“organization” below) was “two-layered organization”.

Consider `O=C(Nc1cccc2cccnc12)c1ccc(N2C(=O)[C@@H]3[C@H](C2=O)[C@@H]2C=C[C@H]3C2)cc1` [IWR-1], for which the “organization” value in data set [4] is listed as “two-layered organization”.

In the case of `c1ccc2c(-c3cnn4cc(-c5ccc(N6CCNCC6)cc5)cnc34)ccnc2c1` [LDN193189], in data set [3], the cardiac mesoderm density result is reported as “denser cardiac mesoderm”, the “cell number per cardioid” value is recorded as “remained stable” and the “cavity expansion / cavity morphogenesis” value is listed as “interfere with cavity expansion; also recorded: impaired cavity morphogenesis”. Moreover, the “organoid/cardioid diameter (size)” value in data set [3] (day 3.5) was “significantly decreased diameter; also recorded: reduces cardioid diameter; also recorded: decreased cardioid size”.

As to `CCN(CC)CCNC(=O)c1c(C)[nH]c(/C=C2\C(=O)Nc3ccc(F)cc32)c1C` [Sunitinib], in data set [5] (setting [7]), the MYL7-GFP expressing cardiomyocytes is reported as 96% and the “cells expressing the endothelial marker CDH5-Tomato” value is 3%. Moreover, the cardiomyocytes in organoids result in data set [5] (Sunitinib 100 nM in the first 10 days of differentiation or longer) is on record as “over 95%”.

Take `Oc1nc(-c2ccc(C(F)(F)F)cc2)nc2c1CSCC2` [XAV939]: the “organization” value in data set [4] is “two-layered organization”.

For the molecule VEGF, the “cell composition of cardioid-like structures” value in data set [4] (VEGF during cardiac mesoderm stage, no WNT inhibition) is “containing only ECs and fibroblast-like cells without CMs; also recorded: contained primarily ECs and COL1A1^+ cells, without CMs”. Moreover, in data set [4], the “EC lining of cavity” value is recorded as “occasionally led to partial EC lining of cavities but often also to ECs forming a partial outside layer”; the “separation of CM and EC layers” value is “separate into a CM and an EC layer with a space between them”. In data set [4] (listed as VEGF-A), the “EC lining of cavity” value was “occasionally observed formation of an EC layer lining the cardioid cavity”; the “separation of CM and EC layers” value is “separated into CM and EC layers”. For the same molecule, the “cardiomyocytes (MYL7+) in organoids” value in data set [5] (VEGF 200 ng/ml at cardiac mesoderm stage, intermediate WNT activation) is listed as roughly 41%. In data set [5] (VEGF 200 ng/ml at cardiac mesoderm stage, intermediate WNT activation, listed as VEGF-A), the “endothelial cells (CDH5+) in organoids” value is on record as 53%.

Take dextran: the entries for the “permeability of cavity structures” value in data set [6] and in data set [6] (listed as dextrans) were “impermeable” and “not permeable”, respectively.

B1: BMP4: bone morphogenetic protein 4 (protein, UniProt P12644 293-408, looked up)
Bone morphogenetic protein 4: SPKHHSQRARKKNKNCRRHSLYVDFSDVGWNDWIVAPPGYQAFYCHGDCPFPLADHLNSTNHAIVQTLVNSVNSSIPKACCVPTELSAISMLYLDEYDKVVLKNYQEMVVEGCGCR
B1: the cavity expansion entry in data set [3] (BMP signalling dosage at cardiac mesoderm stage, higher levels of BMP4) is reported as “drove cavity expansion”.

B2: Noggin (protein, UniProt Q13253 28-232, looked up)
Noggin: QHYLHIRPAPSDNLPLVDLIEHPDPIFDPKEKDLNETLLRSLLGGHYDPGFMATSPPEDRPGGGGGAAGGAEDLAELDQLLRQRPSGAMPSEIKGLEFSEGLAQGKKQRLSKKLRRKLQMWLWSQTFCPVLYAWNDLGSRFWPRYVKVGSCFSKRSCSVPEGMVCKPSKSVHLTVLRWRCQRRGGQRCGWIPIQYPIISECKCSC
On to B2, for which, in data set [3], the cardiac mesoderm density result is on record as “denser cardiac mesoderm”, the “cell number per cardioid” value is listed as “remained stable” and the “cavity expansion / cavity morphogenesis” value is on record as “interfere with cavity expansion; also recorded: heavily impaired cavity expansion; also recorded: impaired cavity morphogenesis”. For the same molecule, the “organoid/cardioid diameter (size)” value in data set [3] (day 3.5) was “significantly decreased diameter; also recorded: reduces cardioid diameter; also recorded: decreased cardioid size”.
